These results are taken from US20140308657A1, “SERINE PROTEASE INHIBITOR KAZAL ANTIBODIES” (priority 2010, published 2014).

One experiment deals with caspase 3. The experiment in a line: Caspase 3 activity in S2-3 and Huh7T cells. Format: cell-based, human. The note with it: 40 hours treatment, caspase 3 kit. The protocol: FIG. 5B. The activation of caspase 3 (CDCA) in S2-3 cells treated with etoposide but not BFA/CHX/Z-VAD. The S2-3 cell and its parental cell Huh7T were either treated with SPDCA inducer BFA/CHX/ZVAD or CDCA inducer etoposide. The caspase activity was determined after […] treatment by Caspase 3 detection kit (Biovision, Mountain View, Calif.).
The same level of apoptosis induced by etoposide in S2-3 cell and Huh7T cell was confirmed by the examination of caspase 3 activity in these cells. After 40 hours treatment, all cells were lysed in […] lysis buffer. […] lysate of each sample was analyzed for caspase 3 activity test using caspase 3 detected kits [Biovision, Mountain View, Calif.]. […] Additionally, the activity of caspase3 was not increased in the cells, in which SPDCA was induced by BFA/CHX, even by double doses [FIG. 5B, B/C/ZX2].

A further experiment deals with prostate tumor cells. The conditions noted are these: cited from earlier work.
The next experiment relates to HCV replicon. In words: HCV replication in HCV replicon cells (Northern blot of HCV RNA). Format: cell-based. The conditions noted are these: 10^5 IU/ml overnight. The protocol: (§1) FIG. 7A-7B. SPIK in the HCV expressing cells. SPIK RNA was detected in the cells with/without HCV replicon as before. HCV RNA was defined by the hybridization of membrane with radio-labeled probe specified HCV.
(§2) FIG. 7B—HCV replicon cells were incubated with HCV polymerase inhibitor 888 (2 mM) 2 days (Lines 3 & 4 duplicate) and 10^5 IU/ml interferon-a overnight (Lines 5 & 6 duplicate) or left untreated (Line 1 & 2 duplicate). The suppressions of HCV RNA and SPIK RNA then were analyzed by Northern blot as before. The smear detected by HCV probe under the band of HCV RNA probably was the replication form of HCV.
(§3) Over-expression of SPIK RNA in G54 cells can be abrogated by inhibition of HCV replication. Treatment of HCV replicon cells with either 2 mM of the HCV polymerase inhibitor 888 for two days or 10^5 IU/ml interferon-a overnight has reduced HCV replication by approximately 90% [FIG. 7B, lane 3-6]. This is consistent with previous reports of these antiviral agents (55, 56).
(Replicon systems follow genome replication, usually without infectious particles.)

In a further experiment the test system is SPIK RNA. The experiment in a line: SPIK RNA level in G54 HCV replicon cells after antiviral treatment. Type of experiment: cell-based, human. The conditions noted are these: 10^5 IU/ml overnight. The protocol: as §1, §2, §3
In a further experiment the test system is S2-3 cells. The experiment in a line: Etoposide induced CDCA, annexin stain, S2-3 cells. The note with it: S2-3 cell, 40 hours treatment. Type of experiment: cell-based, human. Here is the method:
(§4) FIG. 5A. S2-3 and Huh7T cells were treated with CDCA inducer 400 μM etoposide. After 40 hours, the cells apoptosis was examined in microscope and stained with annexin.
(§5) 10^5 S2-3 and Huh7T cells were seeded in 60 mm dishes. When the cell reached 90% confluent, CDCA inducer etoposide was added. After 28-40 hours, the cell shrinkage, blebbing and detachment from culture was found in both cell lines. At the same time, the strong fluorescence stain by annexin was also observed in both cell lines [FIG. 5A]. The amount of apoptotic cells in two cell lines was very similar. Around 62% S2-3 cell was stained by annexin, while 58% of Huh7T cell was stained after 40 hours treatment [data not shown].

The next experiment concerns Huh7T cells. The experiment in a line: Etoposide induced CDCA, annexin stain, Huh7T cells. Format: cell-based, human. The conditions noted are these: Huh7T cell, 40 hours treatment. Here is the method: as §4, §5
The test system of another experiment is HepG2.215 and G54. The experiment in a line: Etoposide induced CDCA in HepG2.215 and G54 cells. The conditions noted are these: HepG2.215 and G54, data not shown. Format: cell-based, human. Here is the method: To study the influence of HCV replication upon SPDCA, G54 and Huh7T cells (its parent cell) were seeded in a 60 mm dish. SPDCA was induced by BFA/CHX/Z-VAD. […] The insensitivity of HCV replicon cell to SPDCA was also seen subsequently by annexin staining. Compared to the parental cells, much fewer HCV expressing cells were stained by annexin after being treated with SPDCA inducers BFA/CHX/Z-VAD [FIG. 8C, Annexin]. DNA fragmentation study also support that the HCV expressing cells were more resistant to apoptosis. 70 hours treatment of BFA/CHX/Z-VAD obviously triggered the DNA fragmentation in Huh7T cell, but not in G54 cells [FIG. 8D]. […] In contrast, both HepG2.215 and G54 are sensitive to CDCA induced by etoposide [data not shown].

Read-outs that look alike come from different tables or passages of the source. Where a SMILES comes first, the peptide text is derived from it. The star is where a group is joined. Cbz = O=C(OCc1ccccc1)*; CH2F = FC*

In the case of `CC(NC(=O)C(NC(=O)OCc1ccccc1)C(C)C)C(=O)NC(CC(=O)O)C(=O)CF` (stereo not drawn) [Z-VAD] (Cbz-Val-Ala-Asp-CH2F; configuration not given here), the “caspase 3 activity” value in the experiment on caspase 3 is on record as “kept unchanged”. The “block of FADD induced apoptosis” value in the experiment with prostate tumor cells (alone) was “unable to be completely blocked”.
In the case of interferon-a, the “reduction of HCV replication” value in the experiment with HCV replicon is listed as “approximately 90%”. In the experiment on SPIK RNA, the SPIK level entry was “correspondingly decreased with HCV RNA”.
With `COc1cc([C@@H]2c3cc4c(cc3[C@@H](O[C@@H]3O[C@@H]5CO[C@@H](C)O[C@H]5[C@H](O)[C@H]3O)[C@H]3COC(=O)[C@H]23)OCO4)cc(OC)c1O` [etoposide], the “cells stained by annexin” value is “Around 62%” with S2-3 cells and 58% in the experiment on Huh7T cells. In addition, the “caspase 3 activity” value with caspase 3 was “at the same level in both cells”. For the same compound, the “sensitivity to CDCA” value in the experiment with HepG2.215 and G54 is given as “sensitive”.
`NCCc1ccc(S(=O)(=O)F)cc1` [AEBSF, 4-2-aminoethyl-benzenesulfonyl fluoride]: the “block of FADD induced apoptosis” value in the experiment with prostate tumor cells (combining use of Z-VAD and AEBSF) was “completely blocked”.
